Assay results as given in PMC7070694, “Identification of New Peptides from Fermented Milk Showing Antioxidant Properties: Mechanism of Action” (Antioxidants, 2020).
Peptide text beside a SMILES is read from it.

Key:
[1] = system: Caco-2 cell monolayer; test: Transepithelial transport through Caco-2 cell monolayers (Transwell); format: in vitro ADME; settings: Caco-2 monolayer on Transwell, 21 days, TEER > 1100 Ω × cm^2, 75 µg peptide in 0.75 mL HBSS apical, 37 °C, RP-HPLC UV 220 nm, mean ± SD, n. d. = not detected with RP-HPLC; for RP-HPLC Estimation AP (%): 120 min after 30 min equilibration, apical compartment, % of total peptide added; for RP-HPLC Estimation BL (%): A-B, 120 min, basolateral compartment, % of initial peptide added apically
Procedure: Caco-2 cells were obtained from DISCOG (University of Padova, Padova, Italy). The cells cultured in DMEM (high glucose) supplemented with 10% FBS, were used between 35 and 60 passages. In order to perform transepithelial transport, 8 × 10^4 cells were seeded on Transwell^© cell culture inserts (0.4 µm pore sizes, 12 mm diameter, 1.12 cm^2 grown surface; Corning Life Sciences, Tewksbury, MA, USA). Cells were grown, differentiated for 21 days and the monolayer integrity was estimated by transepithelial electrical resistance (TEER) (Millicell® ERS-2 volt-ohmmeter, EDM Millipore, Darmstadt, Germany) showing values higher than 1100 Ω × cm^2.
The intestinal barrier crossing capacity of the fractions or synthetic peptides through Caco-2 cells monolayer was evaluated using Transwell® insert model according to Tonolo et al.. Briefly, after 21 days of culturing, Caco-2 cells differentiated forming a monolayer that delimited an upper part (apical compartment) and lower part (basolateral compartment). The monolayer was rinsed three times with Hank’s balanced salt solution (HBSS) and 10 mM D-glucose and equilibrated for 30 min at 37 °C. After, cells were incubated in the presence of 0.75 mL HBSS containing 150 µg fraction or 75 µg peptide in the apical chamber at 37 °C for 120 min. Samples collected from both compartments (apical and basolateral) at different times were centrifuged at 11,600× g, filtered with 0.45 µm filter, frozen and lyophilized. Subsequently, the obtained samples were dissolved in 100 µL of 0.1% TFA aqueous solution and evaluated by RP-HPLC and Matrix assisted laser desorption/ionization- time of flight/time of flight mass spectrometry (MALDI-TOF/TOF MS).
The apical and basolateral compartments were evaluated in RP-HPLC using a column Onyx Monolithic C18 100 mm × 4.6 mm, LC column (Phenomenex, Torrance, CA, USA) with a Waters 2695 Separation Module (Milfold, MA, USA) with a Waters 996 Photodiode Array Detector. Separations were performed with a linear gradient from 0–60% ACN in the presence of 0.1% TFA over 20 min at a constant flow rate of 2 mL/min monitoring the peaks by UV detection (λ = 220 nm).
Subsequently, the obtained fractions were analysed with a MALDI-TOF/TOF 4800 mass spectrometer (AB Sciex, Framingham, MA, USA). After an initial full MS scan, enlargements on the MS signals of interest were acquired. For the basolateral fractions, the samples, after lyophilisation, were dissolved in 50 µL of 25% ACN and 0.1% TFA. The analysis was then performed on 2 µL of these solutions mixed with 2 µL of peptide MALDI matrix α-cyano-4-hydroxycynnamic acid (10 mg/mL aqueous 70% acetonitrile/0.1% TFA). The following analytical conditions were set for MALDI-TOF spectra acquisition: positive ion reflector mode, initial mass range 500–3500 Da (the mass range was then adapted for each enlargement), variable laser intensity (3000–3800), shots/sub-spectrum 50, total shots/spectrum 1500 and accelerating voltage of 20 kV. Final data analysis and fragments identification were done on Data Explorer software (AB Sciex, Framingham, MA, USA), utilizing external mass calibration performed with mass peptide standards (Sigma-Aldrich, St Louis, MO, USA).
In order to evaluate the intestinal crossing capacity of the four peptides, Transwell® insert model peptide absorption, was performed. […] After 10 min and 120 min, apical and basolateral compartments were collected and analyzed by RP-HPLC and mass spectrometry.

[2] = MTT cell viability (cytotoxicity); format: cell-based; settings: human, Caco-2 cells (1 × 10^4), synthetic peptides 0.05 mg/mL, no TbOOH, mean ± SD of at least three experiments, read-out: Percentage of Cell Viability, None (c)

Structure (SMILES)	RP-HPLC Estimation AP (%) [1] [%]	RP-HPLC Estimation BL (%) [1] [%]	viability at 24 h, 50 µg/mL [2] [%]
CC[C@H](C)[C@H](NC(=O)[C@@H]1CCCN1C(=O)[C@H](CC(N)=O)NC(=O)[C@@H]1CCCN1C(=O)[C@@H](NC(=O)[C@H](CC(=O)O)NC(=O)[C@H](CO)NC(=O)[C@H](Cc1ccccc1)NC(=O)[C@H](CO)NC(=O)[C@@H]1CCCN1C(=O)[C@H](C)N)[C@@H](C)CC)C(=O)NCC(=O)N[C@@H](CO)C(=O)N[C@@H](CCC(=O)O)C(=O)N[C@@H](CC(N)=O)C(=O)N[C@@H](CO)C(=O)O [A-16-S] (H-APSFSDIPNPIGSENS-OH)	3.22 ± 0.00	–	–
CSCC[C@H](NC(=O)[C@@H](NC(=O)[C@@H](NC(=O)[C@@H]1CCCN1C(=O)[C@H](CCC(N)=O)NC(=O)[C@H](C)NC(=O)[C@H](CCC(N)=O)NC(=O)[C@H](CS)NC(=O)[C@H](CO)NC(=O)[C@H](CCCCN)NC(=O)[C@H](C)N)[C@@H](C)O)[C@@H](C)O)C(=O)O [A-11-M] (H-AKSCQAQPTTM-OH)	44.96 ± 9.09	0.16 ± 0.02	–
CC[C@H](C)[C@H](NC(=O)[C@H](CCCCN)NC(=O)[C@H](CC(=O)O)NC(=O)[C@H](CCC(N)=O)NC(=O)[C@H](CC(C)C)NC(=O)[C@H](CCC(=O)O)NC(=O)[C@@H](N)CC(=O)O)C(=O)N[C@@H](Cc1c[nH]cn1)C(=O)N1CCC[C@H]1C(=O)N[C@@H](Cc1ccccc1)C(=O)O [D-10-F] (H-DELQDKIHPF-OH)	4.17 ± 0.27	–	–
CC[C@H](C)[C@H](NC(=O)[C@@H]1CCCN1C(=O)[C@H](CC(N)=O)NC(=O)[C@@H]1CCCN1C(=O)[C@@H](NC(=O)[C@H](CC(=O)O)NC(=O)[C@H](CO)NC(=O)[C@@H](N)Cc1ccccc1)[C@@H](C)CC)C(=O)NCC(=O)N[C@@H](CO)C(=O)N[C@@H](CCC(=O)O)C(=O)N[C@@H](CC(N)=O)C(=O)N[C@@H](CO)C(=O)N[C@@H](CCC(=O)O)C(=O)O [F-14-E] (H-FSDIPNPIGSENSE-OH)	3.07 ± 0.60	–	–
CC[C@H](C)[C@H](NC(=O)[C@@H]1CCCN1C(=O)[C@H](CC(N)=O)NC(=O)[C@@H]1CCCN1C(=O)[C@@H](NC(=O)[C@H](CC(=O)O)NC(=O)[C@H](CO)NC(=O)[C@H](Cc1ccccc1)NC(=O)[C@H](CO)NC(=O)[C@@H]1CCCN1C(=O)[C@H](C)N)[C@@H](C)CC)C(=O)NCC(=O)N[C@@H](CO)C(=O)N[C@@H](CCC(=O)O)C(=O)N[C@@H](CC(N)=O)C(=O)N[C@@H](CO)C(=O)N[C@@H](CCC(=O)O)C(=O)O [A-17-E] (H-APSFSDIPNPIGSENSE-OH)	68.4 ± 4.6	0.05 ± 0.03	108 ± 13.2
CC[C@H](C)[C@H](NC(=O)[C@@H]1CCCN1C(=O)CN)C(=O)N[C@H](C(=O)N[C@@H](CC(C)C)C(=O)N[C@@H](CC(N)=O)C(=O)N1CCC[C@H]1C(=O)N[C@@H](Cc1c[nH]c2ccccc12)C(=O)N[C@@H](CC(=O)O)C(=O)N[C@@H](CCC(N)=O)C(=O)N[C@H](C(=O)N[C@@H](CCCCN)C(=O)N[C@@H](CCCNC(=N)N)C(=O)O)C(C)C)C(C)C [G-13-R] (H-GPIVLNPWDQVKR-OH)	3.19 ± 0.27	–	–
CC[C@H](C)[C@H](N)C(=O)N[C@H](C(=O)N[C@@H](CC(C)C)C(=O)N[C@@H](CC(N)=O)C(=O)N1CCC[C@H]1C(=O)N[C@@H](Cc1c[nH]c2ccccc12)C(=O)N[C@@H](CC(=O)O)C(=O)N[C@@H](CCC(N)=O)C(=O)N[C@H](C(=O)N[C@@H](CCCCN)C(=O)N[C@@H](CCCNC(=N)N)C(=O)O)C(C)C)C(C)C [I-11-R] (H-IVLNPWDQVKR-OH)	1.47 ± 0.19	–	–

Second part, led by results:

RP-HPLC Estimation AP (%) [1] [%]	RP-HPLC Estimation BL (%) [1] [%]	Structure (SMILES)	viability at 24 h, 50 µg/mL [2] [%]
87.59 ± 12.18	0.02 ± 0.01	CC[C@H](C)[C@H](NC(=O)[C@@H]1CCCN1C(=O)CNC(=O)[C@@H](N)CCC(N)=O)C(=O)N[C@H](C(=O)N[C@@H](CC(C)C)C(=O)N[C@@H](CC(N)=O)C(=O)N1CCC[C@H]1C(=O)N[C@@H](Cc1c[nH]c2ccccc12)C(=O)N[C@@H](CC(=O)O)C(=O)N[C@@H](CCC(N)=O)C(=O)N[C@H](C(=O)N[C@@H](CCCCN)C(=O)N[C@@H](CCCNC(=N)N)C(=O)O)C(C)C)C(C)C [Q-14-R] (H-QGPIVLNPWDQVKR-OH)	115 ± 15.6
2.21 ± 0.53	–	CSCC[C@H](NC(=O)[C@@H](NC(=O)[C@@H](NC(=O)[C@@H]1CCCN1C(=O)[C@H](CCC(N)=O)NC(=O)[C@H](C)NC(=O)[C@H](CCC(N)=O)NC(=O)[C@H](CS)NC(=O)[C@H](CO)NC(=O)[C@H](CCCCN)NC(=O)[C@H](C)NC(=O)[C@@H]1CCCN1C(=O)[C@@H](N)C(C)C)[C@@H](C)O)[C@@H](C)O)C(=O)O [V-13-M] (H-VPAKSCQAQPTTM-OH)	–
60.76 ± 8.83	0.13 ± 0.04	CSCC[C@H](NC(=O)[C@@H](NC(=O)[C@@H](NC(=O)[C@@H]1CCCN1C(=O)[C@H](CCC(N)=O)NC(=O)[C@H](C)NC(=O)[C@H](CCC(N)=O)NC(=O)[C@H](CS)NC(=O)[C@H](CO)NC(=O)[C@H](CCCCN)NC(=O)[C@H](C)NC(=O)[C@@H]1CCCN1C(=O)[C@@H](NC(=O)[C@@H](NC(=O)[C@@H](N)CC(N)=O)[C@@H](C)O)C(C)C)[C@@H](C)O)[C@@H](C)O)C(=O)O [N-15-M] (H-NTVPAKSCQAQPTTM-OH)	108 ± 5.96
0.55 ± 0.15	–	CC(C)[C@H](NC(=O)[C@H](CCC(N)=O)NC(=O)[C@H](CC(=O)O)NC(=O)[C@H](Cc1c[nH]c2ccccc12)NC(=O)[C@@H]1CCCN1C(=O)[C@@H](N)CC(N)=O)C(=O)N[C@@H](CCCCN)C(=O)N[C@@H](CCCNC(=N)N)C(=O)O [N-8-R] (H-NPWDQVKR-OH)	–
8.97 ± 0.53	0.30 ± 0.07	CC[C@H](C)[C@H](NC(=O)[C@@H]1CCCN1C(=O)[C@H](CC(N)=O)NC(=O)[C@@H]1CCCN1C(=O)[C@@H](NC(=O)[C@H](CC(=O)O)NC(=O)[C@H](CO)NC(=O)[C@H](Cc1ccccc1)NC(=O)[C@@H](N)CO)[C@@H](C)CC)C(=O)NCC(=O)N[C@@H](CO)C(=O)N[C@@H](CCC(=O)O)C(=O)N[C@@H](CC(N)=O)C(=O)N[C@@H](CO)C(=O)N[C@@H](CCC(=O)O)C(=O)O [S-15-E] (H-SFSDIPNPIGSENSE-OH)	–
–	0.12 ± 0.03	CSCC[C@H](NC(=O)[C@@H](NC(=O)[C@@H](NC(=O)[C@@H]1CCCN1C(=O)[C@H](CCC(N)=O)NC(=O)[C@H](C)NC(=O)[C@H](CCC(N)=O)NC(=O)[C@H](CS)NC(=O)[C@@H](N)CO)[C@@H](C)O)[C@@H](C)O)C(=O)O [S-9-M] (H-SCQAQPTTM-OH)	–
–	0.11 ± 0.01	CC[C@H](C)[C@H](NC(=O)[C@@H]1CCCN1C(=O)CNC(=O)[C@@H](N)CCC(N)=O)C(=O)N[C@H](C(=O)N[C@@H](CC(C)C)C(=O)N[C@@H](CC(N)=O)C(=O)N1CCC[C@H]1C(=O)N[C@@H](Cc1c[nH]c2ccccc12)C(=O)N[C@@H](CC(=O)O)C(=O)N[C@@H](CCC(N)=O)C(=O)O)C(C)C [Q-11-Q] (H-QGPIVLNPWDQ-OH)	–
–	0.07 ± 0.05	CC[C@H](C)[C@H](NC(=O)[C@@H]1CCCN1C(=O)CNC(=O)[C@@H](N)CCC(N)=O)C(=O)N[C@H](C(=O)N[C@@H](CC(C)C)C(=O)N[C@@H](CC(N)=O)C(=O)N1CCC[C@H]1C(=O)N[C@@H](Cc1c[nH]c2ccccc12)C(=O)N[C@@H](CC(=O)O)C(=O)N[C@@H](CCC(N)=O)C(=O)N[C@H](C(=O)N[C@@H](CCCCN)C(=O)O)C(C)C)C(C)C [Q-13-K] (H-QGPIVLNPWDQVK-OH)	–
